Test system: Thoracic aorta
Test: Vasorelaxant activity against norepinephrine-induced contraction in Wistar rat thoracic aorta at 100 uM
Format: functional
Design: scale not given: the % may be the effect or the level left

`COC(=O)[C@@H]1C[C@@]23C4=C(CCC5CN6C[C@@H](C)C(O)(C=CC52CO)C63O)CC[C@@H]41` (some centres not stated) [PORDAMACRINE A] gave an Activity of 50%.
In the case of `COC(=O)[C@@H]1C[C@@]23C4=C(CCC5CN6C[C@@H](C)C(C=CC52CO)C63O)CC[C@@H]41` (some centres not stated) [PORDAMACRINE B], the Activity is reported as 47.1%.

Reference: ChEMBL document CHEMBL1141269, “Pordamacrines A and B, alkaloids from Daphniphyllum macropodum” (2007)
